IC50 data for one compound are collected here from article PMC8119374 (Biochimie, 2021).

This test addresses mitochondrial respiratory Complex I (Mus musculus, UniProt P03888+Q91WD5+Q9DC70). The class given is biochemical.

Each structure is given as a SMILES string.

As usually defined, the IC50 is the point on the concentration scale where inhibition reaches its midpoint. Higher therefore signals lower potency. In turn, `Cc1cc(OCc2nnc(SC3CCCC3)n2-c2cccnc2)ccc1-c1ccc(S(C)(=O)=O)cc1` [NMS-873] registered a concentration for half-maximal inhibition (IC50) of 471 nM.
